Laboratory results published in paper PMC2886105, “Assay Strategies for the Discovery and Validation of Therapeutics Targeting Brugia pahangi Hsp90” (PLoS Neglected Tropical Diseases, 2010).
Read-outs that look alike come from different tables or passages of the source. One block for each molecule: values may come before it.

Tests used:
Brugia Hsp90 = target: T1, Brugia Hsp90 (Brugia pahangi, UniProt O61998); assay: biochemical; assay type: binding; details: for dose-dependent reduction of the FP signal: Figure 3B, Brugia extract; for IC50: 6 nM cy3B-GA, 2 µg/well Brugia extract, 4°C, 24 h
T1 construct: from tissue; host or cells: whole adult B. pahangi worms from infected gerbils, ground and re-suspended in HFB assay buffer
Protocol: FP measurements were performed using black 96-well microtiter plates (Corning #3650), where both the excitation and the emission occurred from the top of the well, on an Analyst GT plate reader (Molecular Devices, Sunnyvale, CA). An integration time of 100 ms was used, and Z height was set at 3 mm (middle). The excitation polarization was set at static, and the emission polarization was set at dynamic. […] All FP values were expressed in millipolarization (mP) units. The mP values were calculated using the equation mP = 1000× [(IS – ISB) – (IP – IPB)]/[(IS – ISB) + (IP – IPB)], where IS is the parallel emission intensity measurement, IP is the perpendicular emission intensity sample measurement, and ISB and […] are the corresponding measurements for background (buffer). Total fluorescence was determined as 2×IP+IS.
For the competition studies, FP assays were performed as previously reported. […] Drugs were added to triplicate wells. […] Plates were incubated on a shaker at 4°C, and polarization values measured at 8 to 24 h.
(§1) Figure 3 Brugia assay validation. […] Ligand binding was plotted against the log10 inhibitor concentration, and EC50 values were calculated using a nonlinear least-square curve-fitting program in Prism 4.0. Points, mean; bars, s.d. […] Graphs show mean and SD of Mf output over a three-day period from six female worms per group.

B. pahangi Mf = assay: Mortality of purified B. pahangi Mf incubated in drug; design: species or system Brugia pahangi; details: day 7
Protocol: (§2) Mf output by individual female worms was assessed at two time points and adult worms were examined microscopically and their condition noted. Results are expressed as mean Mf output over a three-day period ± SD. Statistical significance between groups was calculated using the Mann Whitney test with P values <0.05 being considered significant.
In separate experiments, Mf were purified from the peritoneal cavity of infected animals and incubated alone in each of the drugs.

adult female B. pahangi [1] = assay: Mf output by adult female B. pahangi cultured in vitro with drug; design: species or system Brugia pahangi; details: GA at 1 µM; PU-H71 and PU-DZ8 at 5 and 10 µM; three-day period
Protocol: as §2, §1

adult female B. pahangi [2] = test system: adult female B. pahangi; design: method as in PMID 15862576; details: adult worms ref 14; cited from earlier work
adult B. pahangi = assay: Condition and activity of adult B. pahangi worms in vitro; design: species or system Brugia pahangi
Protocol: Mf output by individual female worms was assessed at two time points and adult worms were examined microscopically and their condition noted. Results are expressed as mean Mf output over a three-day period ± SD.

Molecule: Nc1ncnc2c1ncn2[C@@H]1O[C@H](COP(=O)(O)OP(=O)(O)O)[C@@H](O)[C@H]1O [ADP]
- dose-dependent reduction of the FP signal (Brugia Hsp90): dose-dependent reduction of the FP signal

Molecule: COC1=C2C[C@@H](C)C[C@H](OC)[C@H](O)[C@@H](C)/C=C(\C)[C@H](OC(N)=O)[C@@H](OC)/C=C\C=C(/C)C(=O)NC(=CC1=O)C2=O [GA, geldanamycin]
- Mf dead (B. pahangi Mf; 1.0 µM): all dead
- effect on Mf release (adult female B. pahangi [1]): profound effect
- onset of effect on Mf output (adult female B. pahangi [2]): ≤ 24 h

Molecule: CC(C)NCCCn1c(Sc2cc3c(cc2I)OCO3)nc2c(N)ncnc21 [PU-H71]
- Mf dead (B. pahangi Mf; 5.0 µM): approximately 80%
- Mf dead (B. pahangi Mf; 10 µM): 100%
- effect on Mf release (adult female B. pahangi [1]): profound effect
- IC50 (Brugia Hsp90; Brugia IC50, Figure 4C): 80.8 ± 0.5 nM
- IC50 (Brugia Hsp90; IC50, inhibition of the binding of cy3B-GA to Brugia Hsp90, values in text for Figure 3C): 80 nM
- activity of adult worms (adult B. pahangi; 5.0 µM): markedly less active
- activity of adult worms (adult B. pahangi; 10 µM): markedly less active
- concentration of drug required to kill adult Brugia (adult B. pahangi; in vitro): 2.5 µM

Molecule: ivermectin
- dose-dependent reduction of the FP signal (Brugia Hsp90): no such effect

The remaining lines, values ahead:

- Selectivity ratio (Brugia IC50 / SKBr3 IC50) (Brugia Hsp90): 2
- IC50 (Brugia Hsp90; Brugia IC50, Figure 4C): 1410 ± 10 nM
Molecule: C#CCCCn1c(Cc2cc(OC)c(OC)c(OC)c2Cl)nc2c(N)nc(F)nc21 [PU-24FCl]

- Selectivity ratio (Brugia IC50 / SKBr3 IC50) (Brugia Hsp90; Brugia vs human SKBr3 Hsp90 species): 9
Molecule: CC(C)NCCCn1c(Sc2cc3c(cc2I)OCC3)nc2c(N)ncnc21 [PU-WS10]

- EC50 (Brugia Hsp90): > 10000 nM
Molecule: CO[C@@H]1[C@@H](OC(N)=O)[C@@H](O)[C@H](Oc2ccc3c(O)c(NC(=O)c4ccc(O)c(CC=C(C)C)c4)c(=O)oc3c2C)OC1(C)C [novobiocin]

- EC50 (Brugia Hsp90): 75.4 nM
Molecule: C[C@@H]1C[C@H]2O[C@@H]2/C=C\C=C\C(=O)Cc2c(Cl)c(O)cc(O)c2C(=O)O1 [radicicol]
